Converted amounts (≈) assume the structure as drawn. Structures can show the parent of a compound that is named as a salt.
Columns and labels:
Format in all cases: cell-based
Proteus 966 = test: agar dilution MIC, Proteus 966; settings: Mueller-Hinton agar, 10^5 CFU per point, about 18 hrs, 37° C., read-out: Minimum Inhibitory Concentrations
Description: (§1) The antibacterial activity of the compounds according to the present invention was evaluated against pathogenic strains of recent clinical isolation, both gram positive and gram negative. Minimum inhibitory concentration (MIC) were determined by the diluition method in agar, using a multipoint inoculator (Denley Techn. Ltd. England). As a culture medium Mueller-Hinton agar (DIFCO) in Petri capsules was used.
(§2) The bacterial inoculum, originating from an overnight broth was inoculated by a multipoint and was standardized in such a way as to obtain 10^5 colony forming units (CFU) per point.
(§3) After about 18 hrs incubation in a thermostat at 37° C., the bacterial growth was evaluated on each plate.

Staphylococcus 7 = test: agar dilution MIC, Staphylococcus 7; settings: Mueller-Hinton agar, 10^5 CFU per point, about 18 hrs, 37° C., read-out: Minimum Inhibitory Concentrations
Description: as §1, §2, §3

Staphylococcus 29 = test: agar dilution MIC, Staphylococcus 29; settings: Mueller-Hinton agar, 10^5 CFU per point, about 18 hrs, 37° C., read-out: Minimum Inhibitory Concentrations
Description: as §1, §2, §3

E. coli 15 = test: agar dilution MIC, E. coli 15; settings: Escherichia coli, Mueller-Hinton agar, 10^5 CFU per point, about 18 hrs, 37° C., read-out: Minimum Inhibitory Concentrations
Description: as §1, §2, §3

E. coli 963 = test: agar dilution MIC, E. coli 963; settings: Escherichia coli, Mueller-Hinton agar, 10^5 CFU per point, about 18 hrs, 37° C., read-out: Minimum Inhibitory Concentrations
Description: as §1, §2, §3

Klebsiella 4 = test: agar dilution MIC, Klebsiella 4; settings: Mueller-Hinton agar, 10^5 CFU per point, about 18 hrs, 37° C., read-out: Minimum Inhibitory Concentrations
Description: as §1, §2, §3

Klebsiella 5 = test: agar dilution MIC, Klebsiella 5; settings: Mueller-Hinton agar, 10^5 CFU per point, about 18 hrs, 37° C., read-out: Minimum Inhibitory Concentrations
Description: as §1, §2, §3

Salmonella 9 = test: agar dilution MIC, Salmonella 9; settings: Mueller-Hinton agar, 10^5 CFU per point, about 18 hrs, 37° C., read-out: Minimum Inhibitory Concentrations
Description: as §1, §2, §3

Salmonella 10 = test: agar dilution MIC, Salmonella 10; settings: Mueller-Hinton agar, 10^5 CFU per point, about 18 hrs, 37° C., read-out: Minimum Inhibitory Concentrations
Description: as §1, §2, §3

Enterobacter 41 = test: agar dilution MIC, Enterobacter 41; settings: Mueller-Hinton agar, 10^5 CFU per point, about 18 hrs, 37° C., read-out: Minimum Inhibitory Concentrations
Description: as §1, §2, §3

Enterobacter 2653 = test: agar dilution MIC, Enterobacter 2653; settings: Mueller-Hinton agar, 10^5 CFU per point, about 18 hrs, 37° C., read-out: Minimum Inhibitory Concentrations
Description: as §1, §2, §3

Citrobacter 118 = test: agar dilution MIC, Citrobacter 118; settings: Mueller-Hinton agar, 10^5 CFU per point, about 18 hrs, 37° C., read-out: Minimum Inhibitory Concentrations
Description: as §1, §2, §3

Proteus 25 = test: agar dilution MIC, Proteus 25; settings: Mueller-Hinton agar, 10^5 CFU per point, about 18 hrs, 37° C., read-out: Minimum Inhibitory Concentrations
Description: as §1, §2, §3

Citrobacter 120 = test: agar dilution MIC, Citrobacter 120; settings: Mueller-Hinton agar, 10^5 CFU per point, about 18 hrs, 37° C., read-out: Minimum Inhibitory Concentrations
Description: as §1, §2, §3

Staphylococcus 27 = test: agar dilution MIC, Staphylococcus 27; settings: Mueller-Hinton agar, 10^5 CFU per point, about 18 hrs, 37° C., read-out: Minimum Inhibitory Concentrations
Description: as §1, §2, §3

Pseudomonas 19 = test: agar dilution MIC, Pseudomonas 19; settings: Mueller-Hinton agar, 10^5 CFU per point, about 18 hrs, 37° C., read-out: Minimum Inhibitory Concentrations
Description: as §1, §2, §3

Pseudomonas 2437 = test: agar dilution MIC, Pseudomonas 2437; settings: Mueller-Hinton agar, 10^5 CFU per point, about 18 hrs, 37° C., read-out: Minimum Inhibitory Concentrations
Description: as §1, §2, §3

**Q.** What does the source list for CCNCC1CCN(c2c(F)cc3c(=O)c(C(=O)O)cn4c3c2OCC4C)C1 (stereo not drawn) [E.P. 0106489 ex. 20, reference compound]?
**A.** MIC (Proteus 966): 2 µg/mL (≈ 5.14 µM); MIC (Staphylococcus 7): 0.25 µg/mL (≈ 0.642 µM); MIC (Staphylococcus 29): 0.5 µg/mL (≈ 1.28 µM); MIC (E. coli 15): 0.5 µg/mL (≈ 1.28 µM); MIC (E. coli 963): 2 µg/mL (≈ 5.14 µM); MIC (Klebsiella 4): 0.5 µg/mL (≈ 1.28 µM); MIC (Klebsiella 5): 2 µg/mL (≈ 5.14 µM); MIC (Salmonella 9): 1 µg/mL (≈ 2.57 µM); MIC (Salmonella 10): 1 µg/mL (≈ 2.57 µM); MIC (Enterobacter 41): 1 µg/mL (≈ 2.57 µM); MIC (Enterobacter 2653): 0.25 µg/mL (≈ 0.642 µM); MIC (Citrobacter 118): 4 µg/mL (≈ 10.3 µM); MIC (Proteus 25): 1 µg/mL (≈ 2.57 µM); MIC (Citrobacter 120): 2 µg/mL (≈ 5.14 µM); MIC (Staphylococcus 27): 0.25 µg/mL (≈ 0.642 µM); MIC (Pseudomonas 19): 64 µg/mL (≈ 164 µM); MIC (Pseudomonas 2437): 128 µg/mL (≈ 329 µM)

**Q.** How did the MIC (Proteus 966) turn out when CCNCC1CCN(c2c(F)cc3c(=O)c(C(=O)O)cn4c3c2SCC4C)C1 (stereo not drawn) [ex. 1, 10-3-[(ethylamino)methyl]1-pyrrolidinyl]-9 fluoro-2,3-dihydro-3-methyl-7-oxo-7H-pyrido [1,2,3 de][1,4]benzothiazine-6-carboxylic acid hydrochloride] was run?
**A.** 4 µg/mL

**Q.** And the MIC (Staphylococcus 7)?
**A.** 0.12 µg/mL

**Q.** What about the MIC (Staphylococcus 29) of the same compound?
**A.** 0.25 µg/mL

**Q.** What about the MIC (E. coli 15) of the same compound?
**A.** 0.5 µg/mL

**Q.** What about the MIC (E. coli 963) of the same compound?
**A.** 2 µg/mL

**Q.** What about the MIC (Klebsiella 4) of the same compound?
**A.** 0.25 µg/mL

**Q.** What about the MIC (Klebsiella 5) of the same compound?
**A.** 2 µg/mL

**Q.** What about the MIC (Salmonella 9) of the same compound?
**A.** 0.5 µg/mL

**Q.** And the MIC (Salmonella 10)?
**A.** 0.5 µg/mL

**Q.** What about the MIC (Enterobacter 41) of the same compound?
**A.** 0.5 µg/mL

**Q.** What about the MIC (Enterobacter 2653) of the same compound?
**A.** 0.25 µg/mL

**Q.** And the MIC (Citrobacter 118)?
**A.** 2 µg/mL

**Q.** What about the MIC (Proteus 25) of the same compound?
**A.** 4 µg/mL

**Q.** And the MIC (Citrobacter 120)?
**A.** 4 µg/mL

**Q.** And the MIC (Staphylococcus 27)?
**A.** 0.25 µg/mL

**Q.** What about the MIC (Pseudomonas 19) of the same compound?
**A.** 32 µg/mL

**Q.** And the MIC (Pseudomonas 2437)?
**A.** 64 µg/mL

**Q.** CCNCC1CCN(c2c(F)cc3c(=O)c(C(=O)O)cn4c3c2SCC4)C1 (stereo not drawn) [ex. 2, 10-[3[(ethylamino)methyl]-1-pyrrolidinyl]-9-fluoro-2,3-dihydro-7-oxo-7H-pyr ido [1,2,3 de][1,4]benzothiazine-6-carboxylic acid hydrochloride] was tested. Which MIC (Proteus 966) did it give?
**A.** 8 µg/mL

**Q.** And the MIC (Staphylococcus 7)?
**A.** 1 µg/mL

**Q.** And the MIC (Staphylococcus 29)?
**A.** 2 µg/mL

**Q.** And the MIC (E. coli 15)?
**A.** 2 µg/mL

**Q.** And the MIC (E. coli 963)?
**A.** 8 µg/mL

**Q.** And the MIC (Klebsiella 4)?
**A.** 2 µg/mL

**Q.** And the MIC (Klebsiella 5)?
**A.** 8 µg/mL

**Q.** And the MIC (Salmonella 9)?
**A.** 4 µg/mL

**Q.** And the MIC (Salmonella 10)?
**A.** 2 µg/mL

**Q.** And the MIC (Enterobacter 41)?
**A.** 4 µg/mL

**Q.** What about the MIC (Enterobacter 2653) of the same compound?
**A.** 1 µg/mL

**Q.** And the MIC (Citrobacter 118)?
**A.** 8 µg/mL

**Q.** What about the MIC (Proteus 25) of the same compound?
**A.** 8 µg/mL

**Q.** What about the MIC (Citrobacter 120) of the same compound?
**A.** 8 µg/mL

**Q.** What about the MIC (Staphylococcus 27) of the same compound?
**A.** 8 µg/mL

**Q.** What about the MIC (Pseudomonas 19) of the same compound?
**A.** 128 µg/mL

**Q.** And the MIC (Pseudomonas 2437)?
**A.** > 128 µg/mL

Reference: patent publication US5066802A, “Process for preparing pyrido-benzothiazine derivatives having high antibacterial activity and high bioavailability to tissues” (Mediolanum Farmaceutici Srl., priority 1987, dated 1991)
